In patent US20180028480A1, “METHODS OF REDUCING OR PREVENTING OXIDATIVE MODIFICATION OF MEMBRANE POLYUNSATURATED FATTY ACIDS” (Amarin Pharmaceuticals Ireland Limited, priority 2015, published 2018):

What was measured:
[1] = LOOH formation in glucose-treated model membranes, EPA versus EA and ETE (Example 5); format: biochemical; conditions: FIG. 8
Procedure: An experiment was conducted to compare the ability of EPA to prevent lipid hydroperoxide formation in model membranes treated with glucose to two other 20-carbon fatty acids: eicosanoic acid (“EA,” also referred to as arachidic acid, C20:0) and eicosatrienoic acid (“ETE,” C20:3, n-3). All MLV samples were subjected to time-dependent autoxidation by incubating at 37° C. in an uncovered, shaking water bath. This method allows lipid peroxidation to occur gradually without requiring the use of exogenous initiators. Small aliquots (5-100 μL) of each sample were removed, immediately following MLV preparation (0 hr) and after exposing samples to oxidative conditions for 72 or 96 hr, and combined with 1.0 mL of activated CHOD-iodide color reagent. Aliquot volume was reduced with each successive time point to ensure that spectrophotometric readings were within the optimal adsorption range. Test samples were covered and incubated in darkness at room temperature for at least 4 hr. Sample absorbances were then measured against a CHOD blank at 365 nm using a Beckman DU-640 spectrophotometer. The CHOD colorimetric assay is based on the oxidation of iodide (I^−) by lipid hydroperoxide (LOOH) to form triiodide (I3^−), the quantity of which is directly proportional to the amount of LOOH present in the lipid sample. The molar absorptivity (ε) of I3^− is 2.46×10^4 M^−1 cm^−1 at 365 nm.

[2] = tested on: sdLDL; test: Copper-induced sdLDL oxidation (Example 7); format: biochemical, human; conditions: 10.0 μM; copper-induced oxidation 1 hour
Procedure: An experiment to study the antioxidant effect of EPA in small dense LDL (“sdLDL”) was performed. sdLDL was isolated from human plasma by isopycnic centrifugation, separated into test samples of 200 μg/mL, and incubated at 37° C. for 30 min in the absence (vehicle) or presence of EPA, fenofibrate, niacin, or gemfibrozil, each at 10.0 μM. All samples, with the exception of non-oxidized sdLDL controls, were subjected to copper-induced oxidation for 1 hour. Human umbilical vein endothelial cells (HUVECs) were incubated with the various sdLDL samples, stimulated with calcium, and monitored for nitric oxide (NO) and peroxynitrite (ONOO^−) release using nanosensor technology.

[3] = X-ray diffraction of cholesterol-enriched POPC membranes without oxidative conditions (Example 8); conditions: 5 mol %, 50 mol % cholesterol, 15° C., 20° C.
Procedure: Values are mean±S.D. (N=3).
FIGS. 18A-18C show representative x-ray diffraction patterns collected from cholesterol-enriched model membranes treated with vehicle (control), eicosapentaenoic acid (EPA), or docosahexaenoic acid (DHA) and examined at 15° C., 20° C., and 30° C. Membranes were reconstituted from POPC and cholesterol at 50 mol % cholesterol and treated with each of the various agents at 5 mol % (to match treatments used in corresponding lipid dynamics experiments). Each sample was maintained at 74% relative humidity by exposing the samples to a saturated solution of L-(+) tartaric acid. […] DHA, but not EPA or vehicle, induced the formation of cholesterol domains, which are indicated by a distinct set of diffraction peaks (shaded peaks) having a characteristic d-space value of 34 Å and shown to be stable over a broad range of temperatures.
Multilamellar vesicles (MLVs) were prepared as binary mixtures of POPC and cholesterol at 50 mol %. MLVs with DLPC and cholesterol at cholesterol-to-phospholipid (C/P) mole ratios of 0.1:1 to 1.1:1 were also prepared in a similar manner. Component lipids (in chloroform) were transferred to borosilicate culture tubes and combined with vehicle (ethanol) or an equal volume of EPA, DHA, fenofibrate, niacin or gemfibrozil stock solution(s) and adjusted to achieve a drug-to-phospholipid (D/P) mole ratio of 1:30. Membranes reconstituted from POPC and cholesterol (at 50 mol % cholesterol) were treated with each of the various agents at 5 mol %. Samples were then shell-dried under nitrogen gas and placed under vacuum for 3 hours to remove residual solvent.
Membrane samples were oriented for x-ray diffraction analysis as described in Mason, et al., J. Biol. Chem., vol. 281, pages 9337-45 (2006). Briefly, 100 μL aliquots of each MLV preparation (containing 250 μg of phospholipid) were transferred to Lucite sedimentation cells fitted with a removable aluminum foil substrate designed to collect MLVs into a single membrane pellet upon centrifugation. […]

[4] = Fluorescence anisotropy, DPH apparent rotational correlation time (Example 8); conditions: POPC, 0 or 50 mol % cholesterol; increasing omega-3 fatty acid concentrations (FIGS. 16A-16B)
Source text: FIGS. 16A-16B show the dose-dependent effects of EPA and DHA on the ARCT measured for DPH in POPC membranes prepared at either 0 or 50 mol % cholesterol. †p=0.0331 versus cognate DHA treatment (5 mol % omega-3 fatty acids (O3FA), no cholesterol); ^§p=0.0016 versus cognate DHA treatment (5 mol % O3FA, 50 mol % cholesterol); ^‡p=0.0032 versus cognate DHA treatment (10 mol % O3FA, 50 mol % cholesterol) (unpaired, two-tailed Student's t-test). Values are mean±S.D. (N=3).
Fluorescence anisotropy experiments were conducted using large unilamellar vesicles (LUVs) of 100 nm diameter of either POPC (or POPC/cholesterol) containing increasing concentrations of EPA or DHA and 1 mol % DPH fluorescent. Briefly, 640 nmol of total lipid (phospholipid and sterol) and 6.4 nmol of fluorescent probe was mixed well and dried under a stream of nitrogen while being warmed gently at 35° C. […]
In order to ensure that the anisotropy values measured for DPH are not influenced by lifetime-induced artifacts, the apparent (average) rotational correlation times (ARCT) were calculated using Perrin's equation: […]
where r0 is the limiting anisotropy of DPH, r is the steady state anisotropy, and is the mean fluorescence lifetime.

CC/C=C\C/C=C\C/C=C\C/C=C\C/C=C\CCCC(=O)O [EPA, cis-5,8,11,14,17-Eicosapentaenoic acid]
LOOH formation compared to vehicle, glucose, glucose and EA, glucose and ETE [1]: significantly less LOOH formation | reduction of sdLDL oxidation compared to vehicle treatment [2]: > 90% | membrane width (d-space) compared to DHA or vehicle ([3]; 30° C. (FIG. 17)): increased the width (d-space) | membrane cholesterol domain formation ([3]; 30° C. (FIG. 18)): did not induce cholesterol domain formation | DPH apparent rotational correlation time / membrane fluidity [4]: did not alter membrane fluidity
